# Experimental data from US20170240556A1, “BIFLUORODIOXALANE-AMINO-BENZIMIDAZOLE KINASE INHIBITORS FOR THE TREATMENT OF CANCER, AUTOIMMUNEINFLAMMATION AND CNS DISORDERS” (4SC DISCOVERY GMBH, priority 2012, published 2017).
# Assays:
# [1] = test system: Wnt/β-catenin signaling pathway; assay: Wnt reporter assay (CellSensor LEF/TCF-bla FreeStyle 293F cells); format: cell-based; conditions: Homo sapiens; LEF/TCF-bla 293F cells, LiCl and mWnt3a stimulation
# Protocol: The Wnt reporter assay was performed in stably transfected human HEK293 cells. Wnt signaling was induced by administration of Wnt3a protein and read out by β-Lactamase mediated cleavage of CCF4-AM and subsequent fluorescent detection.
# CellSensor LEF/TCF-bla FreeStyle 293F cells (invitrogen #K1677) contain a beta-lactamase reporter gene under control of the β-catenin/LEF/TCF binding elements stably integrated into FreeStyle 293F cells. This cell line can be used to detect antagonists of the Wnt/β-catenin signaling pathway when stimulated by mouse Wnt3a or LiCl. The detection of beta-lactamase is possible with LiveBLAzer FRET—B/G Loading Kit (invitrogen #K1095) with CCF4-AM as subtrate.
# Culture Medium: DMEM Medium +10% dialyzed FBS (PAN 2102-P290310), +1% NEAA (PAA M11-003), +1% P/S (Penicillin/Streptomycin, PAA P11-010) +25 mM HEPES (PAA S11-001), +5 μg/ml Blasticidin (PAA P05-017).
# Cells (CellSensor LEF/TCF-bla FreeStyle 293F, invitrogen K1677) were split with Culture Medium to reach a confluence at the beginning of the assay of 80-90%.
# At start of the assay, cells were harvested from culture and resuspend in assay medium at density of 0,66*10̂6 cells/ml. Subsequently, 60μ1 cell suspension were pipetted in each well of a Poly-D-Lysine 96 well Plate (BD #354640, vertical rows are marked 1 through 12, horizontal lanes are marked A through H),
# Plates were subsequently incubated at 37° C. for at least 2 h.
# To stimulate with Wnt3a, overnight prestimulation of Wnt signalling pathway with LiCl is necessary. Subsequently, an 8M aqueous LiCl solution was diluted 1:200 in assay medium, and 30 μl of said diluted LiCl solution was plated into the appropriate wells (see below pipetting scheme). Plates were then incubated at 37° C. over night.
# Subsequently, compounds and controls were prepared as follows: mWnt3a (R&D 1324-WN, dissolved in PBS+0.1% BSA to 40 μg/ml) was diluted 1:100 in assay medium (=400 ng/ml). Compounds (Cpd) were diluted to a concentration of 10 mM in DMSO to prepare dilution series in assay medium (final concentrations 30 μM, 10 μM, 3 μM, 1 μM, 0.3 μM, 0.1 μM, 0.03 μM and 0.01 μM), which were pipetted into the appropriate wells (see below pipetting scheme). For each dilution of each compound, 3 replicates were tested. Final DMSO concentration was 0.3%.
# LiCl and mWnt3a stimulated cells were used as High control (HC), unstimulated cells were used as low control, a blank was prepared from cell free medium plus mWnt3a, and a functional control was prepared with a known Wnt inhibitor (e.g. PKF118-310), final concentrations were as above.
# Subsequently, the well was incubated for 5 h at 37° C.
# At t=23 hours, FRET reagent mix (Loading Kit with CCF4-AM, Life Technologies #K1096) was prepared; per plate: 138 μl Solution B, 13.8 μl FRET-reagent, and 2300 μl Solution C. 24 μl FRET reagent mix were plated to each well, subsequently plates were incubated for at least 2 h in the dark (it is possible to incubate over night). Subsequently, plates were measured in the BMG FluorStar® plate reader at an emission waveltengths of 460 and 520 nm and with an excitation wavelength of 405 nm.
# To determine potential cytotoxicity of the compounds, plates were centrifuge and the supernatant was discarded by dumping the plates. Subsequently, 100 μl Opti-MEM and 50 μl ViaLight (Lonza #LT07-321) Lysis Buffer were added to each well, followed by incubation for 10 min at room temperature (25° C.). Subsequently, 100 μl ViaLight reagent were added to each well, followed by incubation for 2 min at room temperature (25° C.) in the dark. Optionally, 200 μl of the obtained suspension were transferred to a white 96 well plate. The luminescence was measured with a Tecan Ultra plate reader.
# [2] = target: Casein kinase 1 delta (CSKN1D) (Homo sapiens, UniProt P48730); assay: Casein kinase assay, CK1 delta; format: biochemical; conditions: recombinant CSKN1D 5 nM, ATP 10 μM
# Casein kinase 1 delta (CSKN1D), sequence (P48730 whole entry): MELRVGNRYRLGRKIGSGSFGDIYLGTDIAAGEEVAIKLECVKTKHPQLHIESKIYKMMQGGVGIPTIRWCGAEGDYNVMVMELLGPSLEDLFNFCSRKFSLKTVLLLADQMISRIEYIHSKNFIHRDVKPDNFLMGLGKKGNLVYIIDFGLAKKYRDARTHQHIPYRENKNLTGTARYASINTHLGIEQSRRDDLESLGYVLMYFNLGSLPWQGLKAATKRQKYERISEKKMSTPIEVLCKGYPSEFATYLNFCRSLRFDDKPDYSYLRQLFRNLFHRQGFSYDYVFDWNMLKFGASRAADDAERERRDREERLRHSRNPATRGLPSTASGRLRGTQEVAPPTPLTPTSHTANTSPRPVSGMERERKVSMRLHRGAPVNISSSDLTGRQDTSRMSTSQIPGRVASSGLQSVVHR
smiles,measurement,setting,value
"COc1cccc(C(=O)Nc2nc3cc4c(cc3[nH]2)OC(F)(F)O4)c1 [Compound 56, N-(2,2-difluoro-5H-[1,3]dioxolo[4′,5′:4,5]benzo[1,2-d]imidazol-6-yl)-3-methoxybenzamide]",IC50,[1],< 5 µM
same,IC50,[2],< 0.2 µM
